Data from patent US9487554B2, “Estra-1,3,5(10),16-tetraene-3-carboxamide derivatives, processes for their preparation, pharmaceutical preparations comprising them and their use for preparing medicaments” (BAYER INTELLECTUAL PROPERTY GmbH, priority 2011, dated 2016).
Several values for one entry are separate records, joined by “and”; a condition that tells them apart may be missing. Equal entries are not always repeated.

Target: recombinant human AKR1C3 (Homo sapiens (Human), UniProt P42330)
Experiment: AKR1C3 enzyme inhibition assay (Coumberone to Coumberol fluorescence)
Type: biochemical
Conditions: individual experimental determinations
Experimental: The AKR1C3-inhibitory activity of the substances of the present invention was measured in the AKR1C3 assay described in the paragraphs below.
Essentially, the enzyme activity is measured by quantification of the Coumberol from Coumberone (Halim, M., Yee, D. J., and Sames, D., J. AM. CHEM. SOC. 130, 14123-14128 (2008) and Yee, D. J., Balsanek, V., Bauman, D. R., Penning, T. M., and Sames, D., Proc. Natl. Acad. Sci. USA 103, 13304-13309 (2006)). In this test, the increase of the highly fluorescent Coumberol by NADPH—(nicotinamide adenine dinucleotide phosphate)-dependent reduction of the non-fluorescent Coumberone by AKR1C3 can be determined.
The enzyme used was recombinant human AKR1C3 (Aldo-keto reductase family 1 member C3) (GenBank Accession No. NM_003739). This was expressed in E. coli as GST (glutathione S transferase) fusion protein and purified by glutathione Sepharose affinity chromatography. The GST was removed by digestion with thrombin and subsequent size exclusion chromatography (Dufort, I., Rheault, P., Huang, X F., Soucy, P., and Luu-The, V., Endocrinology 140, 568-574 (1999)).
For the assay, 50 nl of a 100-fold concentrated solution of the test substance in DMSO were pipetted into a black low-volume 384-well microtiter plate (Greiner Bio-One, Frickenhausen, Germany), 2.0 μl of a solution of AKR1C3 in assay buffer [50 mM potassium phosphate buffer pH 7, 1 mM DTT, 0.0022% (w/v) Pluronic F-127, 0.01% BSA (w/v) and protease inhibitor cocktail (Complete, EDTA-free Protease Inhibitor Cocktail from Roche)] were added and the mixture was incubated for 15 min to allow pre-binding of the substances to the enzyme prior to the enzyme reaction. The enzyme reaction was then started by addition of 3 μl of a solution of NADPH (16.7 μM→final concentration in 5 μl of assay volume is 10 μM) and Coumberone (0.5 μM→final concentration in 5 μl of assay volume is 0.3 μM) in assay buffer, and the resulting mixture was incubated at 22° C. for the reaction time of 90 min. The concentration of the AKR1C3 was adapted to the respective activity of the enzyme preparation and adjusted such that the assay was carried out in the linear range. Typical concentrations were in the region of 1 nM. The reaction was stopped by addition of 5 μl of a stop solution consisting of the inhibitor EM-1404 [F. Labrie et al. U.S. Pat. No. 6,541,463, 2003] (2 μM→final concentration in […] is 1 μM). The fluorescence of the Coumberole was then measured at 520 nm (excitation at 380 nm) using a suitable measuring instrument (Pherastar from BMG Labtechnologies). The intensity of the fluorescence was used as a measure of the amount of Coumberole formed and thus of the enzyme activity of AKR1C3. The data were normalized (enzyme reaction without inhibitor=0% inhibition; all other assay components, but no enzyme=100% inhibition).

recombinant human AKR1C3, sequence (P42330 whole entry): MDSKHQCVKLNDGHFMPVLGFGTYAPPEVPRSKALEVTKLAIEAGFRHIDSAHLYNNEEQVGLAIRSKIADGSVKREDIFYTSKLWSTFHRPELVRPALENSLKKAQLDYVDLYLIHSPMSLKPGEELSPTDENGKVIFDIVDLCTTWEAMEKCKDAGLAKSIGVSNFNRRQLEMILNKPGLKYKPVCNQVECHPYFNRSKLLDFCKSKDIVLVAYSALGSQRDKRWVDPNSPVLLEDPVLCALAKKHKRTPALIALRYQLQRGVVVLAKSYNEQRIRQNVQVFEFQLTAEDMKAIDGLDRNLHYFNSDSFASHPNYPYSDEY

Row | SMILES | IC50
1 | C[C@]12CC[C@@H]3c4ccc(C(=O)N[C@@H]5CCC[C@@H]5C(=O)O)cc4CC[C@H]3[C@@H]1CC=C2c1cncc(F)c1 (relative stereo) [Example 11, (1R*,2S*)-2-({[17-(5-Fluoropyridin-3-yl)estra-1,3,5(10),16-tetraen-3-yl]carbonyl}amino)-cyclopentane-1-carboxylic acid] | 2.2 nM and 1.8 nM
2 | C[C@]12CC[C@@H]3c4ccc(C(=O)NCC5(C(=O)O)CCOCC5)cc4CC[C@H]3[C@@H]1CC=C2c1cncc(F)c1 [Example 1, 4-[({[17-(5-Fluoropyridin-3-yl)estra-1,3,5(10),16-tetraen-3-yl]carbonyl}amino)methyl]-3,4,5,6-tetrahydro-2H-pyran-4-carboxylic acid] | 1.4 nM and 1.9 nM
3 | C[C@]12CC[C@@H]3c4ccc(C(=O)NCC5(C(=O)O)CCCC5)cc4CC[C@H]3[C@@H]1CC=C2c1cncc(F)c1 [Example 4, 1-[({[17-(5-Fluoropyridin-3-yl)estra-1,3,5(10),16-tetraen-3-yl]carbonyl}amino)methyl]-cyclopentane-1-carboxylic acid] | 13.9 nM and 8.9 nM
4 | C[C@]12CC[C@@H]3c4ccc(C(=O)N5CCC(C(=O)O)CC5)cc4CC[C@H]3[C@@H]1CC=C2c1cncc(F)c1 [Example 6, 1-{[17-(5-Fluoropyridin-3-yl)estra-1,3,5(10),16-tetraen-3-yl]carbonyl}piperidine-4-carboxylic acid] | 21.1 nM and 21 nM
5 | CC(C)(NC(=O)c1ccc2c(c1)CC[C@@H]1[C@@H]2CC[C@]2(C)C(c3cncc(F)c3)=CC[C@@H]12)C(=O)O [Example 7, N-{[17-(5-Fluoropyridin-3-yl)estra-1,3,5(10),16-tetraen-3-yl]carbonyl}-2-methylalanine] | 8.5 nM and 9.6 nM
6 | C[C@]12CC[C@@H]3c4ccc(C(=O)NCCCC(=O)O)cc4CC[C@H]3[C@@H]1CC=C2c1cncc(F)c1 [Example 8, 4-({[17-(5-Fluoropyridin-3-yl)estra-1,3,5(10),16-tetraen-3-yl]carbonyl}amino)butanoic acid] | 8.5 nM and 6.8 nM
7 | C[C@@H](CC(=O)O)NC(=O)c1ccc2c(c1)CC[C@@H]1[C@@H]2CC[C@]2(C)C(c3cncc(F)c3)=CC[C@@H]12 [Example 12, (S)-3-({[17-(5-Fluoropyridin-3-yl)estra-1,3,5(10),16-tetraen-3-yl]carbonyl}amino)-butanoic acid] | 1.2 nM and 1.7 nM
8 | C[C@H](CC(=O)O)NC(=O)c1ccc2c(c1)CC[C@@H]1[C@@H]2CC[C@]2(C)C(c3cncc(F)c3)=CC[C@@H]12 [Example 13, (R)-3-({[17-(5-Fluoropyridin-3-yl)estra-1,3,5(10),16-tetraen-3-yl]carbonyl}amino)-butanoic acid] | 0.8 nM and 1.8 nM
9 | COc1cncc(C2=CC[C@H]3[C@@H]4CCc5cc(C(=O)NCC(C)(C)C(=O)O)ccc5[C@H]4CC[C@]23C)c1 [Example 14, 3-({[17-(5-Methoxypyridin-3-yl)estra-1,3,5(10),16-tetraen-3-yl]carbonyl}amino)-2,2-dimethylpropanoic acid] | 9.8 nM and 17.9 nM
10 | COc1cncc(C2=CC[C@H]3[C@@H]4CCc5cc(C(=O)NCCC(=O)O)ccc5[C@H]4CC[C@]23C)c1 [Example 15, N-{[17-(5-Methoxypyridin-3-yl)estra-1,3,5(10),16-tetraen-3-yl]carbonyl}-β-alanine] | 6.9 nM and 7.2 nM
11 | COc1cncc(C2=CC[C@H]3[C@@H]4CCc5cc(C(=O)N(C)CCC(=O)O)ccc5[C@H]4CC[C@]23C)c1 [Example 16, N-{[17-(5-Methoxypyridin-3-yl)estra-1,3,5(10),16-tetraen-3-yl]carbonyl}-N-methyl-β-alanine] | 4.4 nM and 6.9 nM
12 | C[C@]12CC[C@@H]3c4ccc(C(=O)NCCC(=O)O)cc4CC[C@H]3[C@@H]1CC=C2c1cncnc1 [Example 17, N-{[17-(Pyrimidin-5-yl)estra-1,3,5(10),16-tetraen-3-yl]carbonyl}-β-alanine] | 29.7 nM and 37.6 nM
13 | C[C@]12CC[C@@H]3c4ccc(C(=O)NCCCC(=O)O)cc4CC[C@H]3[C@@H]1CC=C2c1cncnc1 [Example 18, 4-({[17-(Pyrimidin-5-yl)estra-1,3,5(10),16-tetraen-3-yl]carbonyl}amino)butanoic acid] | 23.5 nM and 31.8 nM
14 | CN(CCC(=O)O)C(=O)c1ccc2c(c1)CC[C@@H]1[C@@H]2CC[C@]2(C)C(c3cncnc3)=CC[C@@H]12 [Example 19, N-Methyl-N-{[17-(pyrimidin-5-yl)estra-1,3,5(10),16-tetraen-3-yl]carbonyl}-β-alanine] | 26.7 nM (2×) and 17.8 nM
15 | CC(C)(CNC(=O)c1ccc2c(c1)CC[C@@H]1[C@@H]2CC[C@]2(C)C(c3cncnc3)=CC[C@@H]12)C(=O)O [Example 20, 2,2-Dimethyl-3-({[17-(pyrimidin-5-yl)estra-1,3,5(10),16-tetraen-3-yl]carbonyl}amino)-propanoic acid] | 45.5 nM and 46.3 nM
16 | C[C@]12CC[C@@H]3c4ccc(C(=O)NCCC(=O)O)cc4CC[C@H]3[C@@H]1CC=C2c1cncc(C(F)(F)F)c1 [Example 21, N-({17-[5-(Trifluoromethyl)pyridin-3-yl]estra-1,3,5(10),16-tetraen-3-yl}carbonyl)-β-alanine] | 8.5 nM
17 | CN(CCC(=O)O)C(=O)c1ccc2c(c1)CC[C@@H]1[C@@H]2CC[C@]2(C)C(c3cncc(C(F)(F)F)c3)=CC[C@@H]12 [Example 22, N-Methyl-N-({17-[5-(trifluoromethyl)pyridin-3-yl]estra-1,3,5(10),16-tetraen-3-yl}carbonyl)-β-alanine] | 4.2 nM
18 | C[C@]12CC[C@@H]3c4ccc(C(=O)N5CCC[C@H]5C(=O)O)cc4CC[C@H]3[C@@H]1CC=C2c1cncc(F)c1 [Example 23, N-{[17-(5-Fluoropyridin-3-yl)estra-1,3,5(10),16-tetraen-3-yl]carbonyl}-L-proline] | 1.9 nM
19 | C[C@]12CC[C@@H]3c4ccc(C(=O)N5CCC[C@@H]5C(=O)O)cc4CC[C@H]3[C@@H]1CC=C2c1cncc(F)c1 [Example 24, N-{[17-(5-Fluoropyridin-3-yl)estra-1,3,5(10),16-tetraen-3-yl]carbonyl}-D-proline] | 5.3 nM
20 | C[C@]12C[C@H](F)[C@@H]3c4ccc(C(=O)NCCCC(=O)O)cc4CC[C@H]3[C@@H]1CC=C2c1cncc(F)c1 [Example 25, 4-({[11β-Fluoro-17-(5-fluoropyridin-3-yl)estra-1,3,5(10),16-tetraen-3-yl]carbonyl}-amino)butanoic acid] | 29.1 nM and 16.8 nM
21 | CN(CCC(=O)O)C(=O)c1ccc2c(c1)CC[C@H]1[C@@H]3[C@@H](O)C=C(c4cncc(F)c4)[C@@]3(C)CC[C@H]21 [Example 26, N-{[17-(5-Fluoropyridin-3-yl)-15α-hydroxyestra-1,3,5(10),16-tetraen-3-yl]carbonyl}-N-methyl-β-alanine] | 11 nM and 16.6 nM
22 | CN(CCC(=O)O)C(=O)c1ccc2c(c1)CC[C@H]1[C@@H]3[C@H](O)C=C(c4cncc(F)c4)[C@@]3(C)CC[C@H]21 [Example 27, N-{[17-(5-Fluoropyridin-3-yl)-15β-hydroxyestra-1,3,5(10),16-tetraen-3-yl]carbonyl}-N-methyl-β-alanine] | 35.3 nM and 24.2 nM
23 | Cc1cc(C2=CC[C@H]3[C@@H]4CCc5cc(C(=O)N(C)CCC(=O)O)ccc5[C@H]4CC[C@]23C)cnn1 [Example 28, N-Methyl-N-{[17-(6-methylpyridazin-4-yl)estra-1,3,5(10),16-tetraen-3-yl]carbonyl}-β-alanine] | 0.5 nM
24 | CN(CCC(=O)O)C(=O)c1ccc2c(c1)CC[C@@H]1[C@@H]2CC[C@]2(C)C(c3cccnc3)=CC[C@@H]12 [Example 29, N-Methyl-N-{[17-(pyridin-3-yl)estra-1,3,5(10),16-tetraen-3-yl]carbonyl}-β-alanine] | 2.5 nM
25 | COc1cncc(C2=CC[C@H]3[C@@H]4CCc5cc(C(=O)NCCCC(=O)O)ccc5[C@H]4CC[C@]23C)c1 [Example 30, 4-({[17-(5-Methoxypyridin-3-yl)estra-1,3,5(10),16-tetraen-3-yl]carbonyl}amino)butanoic acid] | 7.3 nM and 11.2 nM
